Data: article PMC3724850, “A Scallop Nitric Oxide Synthase (NOS) with Structure Similar to Neuronal NOS and Its Involvement in the Immune Defense” (PLoS ONE, 2013)

Target: T1, CfNOS (native) (Azumapecten farreri, UniProt S4UD24)
T1 construct: gene NOS; immunoprecipitated from scallop haemocyte lysate with rat polyclonal antibody to rCfNOS, Protein G column
T1 sequence (S4UD24 1-1486): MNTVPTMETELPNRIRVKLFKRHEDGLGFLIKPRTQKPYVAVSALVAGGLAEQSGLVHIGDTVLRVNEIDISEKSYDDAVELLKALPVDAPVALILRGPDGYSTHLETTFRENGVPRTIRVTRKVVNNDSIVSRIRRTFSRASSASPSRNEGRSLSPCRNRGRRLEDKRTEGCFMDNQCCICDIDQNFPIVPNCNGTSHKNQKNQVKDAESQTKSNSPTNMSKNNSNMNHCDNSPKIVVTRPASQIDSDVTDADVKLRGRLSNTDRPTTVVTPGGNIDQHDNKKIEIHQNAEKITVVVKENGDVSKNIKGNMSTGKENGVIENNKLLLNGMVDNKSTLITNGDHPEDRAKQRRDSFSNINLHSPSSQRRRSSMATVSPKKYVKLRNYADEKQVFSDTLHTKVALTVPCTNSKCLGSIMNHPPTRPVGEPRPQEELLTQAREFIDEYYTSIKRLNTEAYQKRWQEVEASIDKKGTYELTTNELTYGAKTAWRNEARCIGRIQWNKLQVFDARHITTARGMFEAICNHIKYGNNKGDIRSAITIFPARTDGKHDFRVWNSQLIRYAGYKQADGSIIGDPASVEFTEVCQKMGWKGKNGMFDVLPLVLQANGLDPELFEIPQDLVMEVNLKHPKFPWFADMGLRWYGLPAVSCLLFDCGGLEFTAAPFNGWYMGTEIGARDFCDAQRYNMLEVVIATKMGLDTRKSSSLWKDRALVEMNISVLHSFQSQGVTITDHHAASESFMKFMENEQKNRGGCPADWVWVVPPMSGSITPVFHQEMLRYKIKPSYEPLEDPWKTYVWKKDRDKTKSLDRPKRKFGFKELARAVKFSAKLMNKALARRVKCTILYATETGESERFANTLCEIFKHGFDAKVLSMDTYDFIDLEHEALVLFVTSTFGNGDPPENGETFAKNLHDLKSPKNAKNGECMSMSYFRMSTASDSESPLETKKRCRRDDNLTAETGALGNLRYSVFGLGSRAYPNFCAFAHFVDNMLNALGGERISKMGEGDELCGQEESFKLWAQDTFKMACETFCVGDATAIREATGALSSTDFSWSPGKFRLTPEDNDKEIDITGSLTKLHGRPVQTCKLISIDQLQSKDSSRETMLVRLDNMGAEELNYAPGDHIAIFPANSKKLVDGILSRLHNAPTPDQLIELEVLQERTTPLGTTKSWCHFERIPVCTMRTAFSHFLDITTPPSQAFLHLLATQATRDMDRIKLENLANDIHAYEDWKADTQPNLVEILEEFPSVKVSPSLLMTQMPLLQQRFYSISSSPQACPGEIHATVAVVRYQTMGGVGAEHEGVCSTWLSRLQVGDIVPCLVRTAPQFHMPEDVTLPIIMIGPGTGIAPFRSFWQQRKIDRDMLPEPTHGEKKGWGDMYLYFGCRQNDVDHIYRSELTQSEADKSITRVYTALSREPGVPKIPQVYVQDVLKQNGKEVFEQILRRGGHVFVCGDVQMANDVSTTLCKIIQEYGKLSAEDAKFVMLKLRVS
Assay: NOS activity by total NOS detection kit (absorbance […] nm)
Format: biochemical
Settings: no inhibitor; immunoprecipitated native enzyme

Q: For N=C(N)NCCC[C@H](N)C(=O)O [L-Arginine], which “NOS activity by total NOS detection kit (absorbance 530 nm)” value is on record?
A: Its value is “measuring the NO production using L-Arginine as the substrate”.
